≈ marks a conversion by molar mass, not a printed value. Like-named read-outs stand apart in the source and are kept apart here.
Columns and labels:
[1] = target: T1, glucocerebrosidase (Gcase) (Homo sapiens, UniProt P04062); experiment: Glucocerebrosidase (Gcase) activation assay, 4-methylumbelliferyl-beta-D-glucopyranoside substrate, with saposin C; type: biochemical
T1 sequence (P04062 40-536): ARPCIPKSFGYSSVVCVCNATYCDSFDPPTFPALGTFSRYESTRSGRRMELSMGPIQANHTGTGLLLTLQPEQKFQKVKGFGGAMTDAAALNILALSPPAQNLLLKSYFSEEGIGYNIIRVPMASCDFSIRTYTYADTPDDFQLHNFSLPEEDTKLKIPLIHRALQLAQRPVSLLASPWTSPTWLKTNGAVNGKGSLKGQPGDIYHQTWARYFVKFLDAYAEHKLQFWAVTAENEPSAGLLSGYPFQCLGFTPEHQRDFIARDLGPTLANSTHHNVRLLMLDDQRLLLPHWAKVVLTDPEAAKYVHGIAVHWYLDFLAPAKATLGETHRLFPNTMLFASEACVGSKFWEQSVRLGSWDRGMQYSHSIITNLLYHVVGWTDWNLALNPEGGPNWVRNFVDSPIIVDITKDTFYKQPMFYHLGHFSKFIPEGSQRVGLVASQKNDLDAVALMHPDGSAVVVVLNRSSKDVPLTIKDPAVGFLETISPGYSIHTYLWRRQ
Method: The ability of exemplary compounds to activate glucocerebrosidase (Gcase) was measured.
A 484 μL aliquot of a 1.0 mg/mL solution of phosphatidylserine (PS) (Sigma P7769) in chloroform was evaporated under a stream of nitrogen for 1 hour. The lipid film was dissolved over 4 minutes of vigorous vortexing in 40 mL of 176 mM K2HPO4/50 mM citric acid (pH 4.7) containing 7.5 μL of triton X-100, resulting in a mixed micellar preparation with a composition of 0.32 mM triton and 0.37 mol % PS. 4-Methylumbelliferyl-beta-D-glucopyranoside (ACROS-337025000) was dissolved in the micellar solution to a final concentration of 2 mM for use as the reaction substrate.
Test compounds were diluted to the desired concentrations with dimethylsulfoxide (DMSO) from 10 mM stocks, and 0.41 μL of the DMSO compound mixture was added to 100 μL of micellar solution containing 10 nM GCase and 100 nM saposin C (Enzo ALX-201-262-C050). Pre-incubation was allowed to occur for 30 minutes at room temperature, after which the reaction was initiated by combining 25 μL of substrate solution with 25 μL of compound/GCase/saposin mixture. The reaction proceeded for 15 minutes at room temperature and was stopped by adding 150 μL of 1M glycine, pH 12.5. The endpoint of the reaction was monitored by measuring fluorescence intensity (excitation: 365 nm; emission: 440 nm) on a SpectraMax i3 instrument (Molecular Devices). Test compounds were screened at 1.0 and 0.1 μM final concentration, and subsequent 8-point dose response curves were obtained using 3-fold dilutions from a maximum final concentration of […].

[2] = Compound solubility in water; type: physicochemical
[3] = 0.1 μM test compound, read-out: Percent Gcase Activation 0.1 μM Test Compound
[4] = 1 μM test compound, read-out: Percent Gcase Activation 1 μM Test Compound
[5] = test compound at 0.1 μM, read-out: Percent Gcase Activation, 0.1 μM Test Compound
[6] = test compound at 1.0 μM, read-out: Percent Gcase Activation, 1 μM Test Compound

Compound | activation at 0.1 µM [1, 3] | activation at 1 µM [1, 4] | solubility [2] | activation at 0.1 µM [1, 5] | activation at 1 µM [1, 6] | solubility ([2]; in water)
C#Cc1cccc(C2(NC(=O)c3ncn4c(C)cc(C)nc34)CC2)c1 [III-2] | < 10% | 30 to 60% | 19.7 µg/mL (≈ 59.6 µM) | – | – | –
C#Cc1cccc(C(NC(=O)c2ncn3c(C)cc(C)nc23)C(F)(F)F)c1 (centres unmarked) [III-3] | > 20% | > 60% | 2.2 µg/mL (≈ 5.91 µM) | – | – | –
C#Cc1cccc([C@@H](NC(=O)c2ncn3c(C)cc(C)nc23)C(F)(F)F)c1 [III-4] | > 20% | > 60% | 6.1 µg/mL (≈ 16.4 µM) | – | – | –
Cc1cc(C)n2cnc(C(=O)N[C@@H](C)C3CC3)c2n1 [III-6] | < 10% | < 30% | 24.4 µg/mL (≈ 94.5 µM) | – | – | –
Cc1cc(C)n2cnc(C(=O)NC(CC(C)C)C3CC3)c2n1 (centres unmarked) [III-11] | 10 to 20% | > 60% | 32.6 µg/mL (≈ 109 µM) | – | – | –
Cc1cc(C)n2cnc(C(=O)NC(c3ccc(F)cc3)C(F)(F)F)c2n1 (centres unmarked) [III-16] | 10 to 20% | > 60% | 24.3 µg/mL (≈ 66.3 µM) | – | – | –
CNc1cc(C)n2cnc(C(=O)NC(c3ccc(F)cc3)C(F)(F)F)c2n1 (centres unmarked) [III-17] | > 20% | > 60% | 0.9 µg/mL (≈ 2.36 µM) | – | – | –
CNc1cc(C)nc2c(C(=O)NC(c3ccc(F)cc3)C(F)(F)F)ncn12 (centres unmarked) [III-18] | > 20% | > 60% | 1.7 µg/mL (≈ 4.46 µM) | – | – | –
COc1cc(C)n2cnc(C(=O)NC(c3ccc(F)cc3)C(F)(F)F)c2n1 (centres unmarked) [III-19] | 10 to 20% | > 60% | 8.7 µg/mL (≈ 22.8 µM) | – | – | –
COc1cc(C)nc2c(C(=O)NC(c3ccc(F)cc3)C(F)(F)F)ncn12 (centres unmarked) [III-20] | < 10% | > 60% | 6.9 µg/mL (≈ 18 µM) | – | – | –
CCOc1cc(C)n2cnc(C(=O)NC(c3ccc(F)cc3)C(F)(F)F)c2n1 (centres unmarked) [III-21] | > 20% | > 60% | 1.1 µg/mL (≈ 2.78 µM) | – | – | –
COCc1cc(C)n2cnc(C(=O)NC(c3ccc(F)cc3)C(F)(F)F)c2n1 (centres unmarked) [III-22] | < 10% | > 60% | 24.7 µg/mL (≈ 62.3 µM) | – | – | –
COCc1cc(C)nc2c(C(=O)NC(c3ccc(F)cc3)C(F)(F)F)ncn12 (centres unmarked) [III-23] | > 20% | > 60% | 10.9 µg/mL (≈ 27.5 µM) | – | – | –
Cc1cc(C)n2cnc(C(=O)NC(C)(C)C3CC4(CCC4)C3)c2n1 [III-25] | > 20% | > 60% | 1.5 µg/mL (≈ 4.59 µM) | – | – | –
Cc1cc(-c2ccncc2)nc2c(C(=O)NC(CC(C)C)C3CC3)ncn12 (centres unmarked) [III-28] | < 10% | > 60% | 19.7 µg/mL (≈ 54.2 µM) | – | – | –
COc1ccccc1[C@H](C)NC(=O)c1ncn2c(C)cc(-c3ccc(F)cc3)nc12 [III-30] | 10 to 20% | > 60% | 1.3 µg/mL (≈ 3.21 µM) | – | – | –

Compound | activation at 0.1 µM [1, 3] | activation at 1 µM [1, 4] | solubility [2] | activation at 0.1 µM [1, 5] | activation at 1 µM [1, 6] | solubility ([2]; in water)
CCC(NC(=O)c1ncn2c(C)cc(-c3ccccn3)nc12)c1ccc(F)cc1 (centres unmarked) [III-31] | 10 to 20% | > 60% | 2.7 µg/mL (≈ 6.93 µM) | – | – | –
Cc1cn2cnc(C(=O)N[C@@H](C)C3CC3)c2nc1-c1ccc(F)cc1 [III-32] | < 10% | < 30% | – | – | – | –
CCc1cc(-c2ccc(F)cc2)nc2c(C(=O)N[C@@H](C)C3CC3)ncn12 [III-33] | > 20% | > 60% | 10.5 µg/mL (≈ 29.8 µM) | – | – | –
COc1cc(-c2ccc(F)cc2)nc2c(C(=O)N[C@@H](C)C3CC3)ncn12 [III-34] | < 10% | < 30% | 0.2 µg/mL (≈ 0.564 µM) | – | – | –
Cc1nc2c(C(=O)N[C@@H](C)C3CC3)ncn2c(C)c1-c1ccc(F)cc1 [III-40] | < 10% | < 30% | – | – | – | –
Cc1cc(Oc2ccc(F)cc2)nc2c(C(=O)NC(C)(C)C3CC3)ncn12 [III-77] | < 10% | 30 to 60% | – | – | – | –
Cc1cc(-c2cccnc2)nc2c(C(=O)NC(C)C(C)C3CC3)ncn12 (centres unmarked) [III-189] | < 10% | 30 to 60% | – | – | – | –
Cc1cc(-c2ccc(C#N)o2)nc2c(C(=O)N[C@@H](C3CC3)C(F)(F)F)ncn12 [IV-35] | – | – | – | > 20% | > 60% | –
Cc1cc(-c2nccs2)nc2c(C(=O)NC(C)(C)C)ncn12 [IV-54] | – | – | – | < 10% | < 30% | –
COc1cccc(-c2cc(C)n3cnc(C(=O)NC(C4CC4)C(F)(F)F)c3n2)n1 (centres unmarked) [IV-91] | – | – | – | – | – | 1.4 µg/mL (≈ 3.45 µM)
Cc1cc(C#N)c(-c2cc(C)n3cnc(C(=O)N[C@H](C4CC4)C(F)(F)F)c3n2)o1 [IV-93] | – | – | – | > 20% | > 60% | –
Cc1cc(C#N)c(-c2cc(C)n3cnc(C(=O)N[C@@H](C4CC4)C(F)(F)F)c3n2)o1 [IV-94] | – | – | – | > 20% | > 60% | –
Cc1nscc1-c1cc(C)n2cnc(C(=O)N[C@@H](C3CC3)C(F)(F)F)c2n1 [IV-97] | – | – | – | 10 to 20% | > 60% | –
Cc1sncc1-c1cc(C)n2cnc(C(=O)N[C@H](C3CC3)C(F)(F)F)c2n1 [IV-98] | – | – | – | > 20% | > 60% | –
Cc1sncc1-c1cc(C)n2cnc(C(=O)N[C@@H](C3CC3)C(F)(F)F)c2n1 [IV-99] | – | – | – | > 20% | > 60% | –

Next, values leading:

activation at 0.1 µM [1, 3] | activation at 1 µM [1, 4] | solubility [2] | activation at 0.1 µM [1, 5] | activation at 1 µM [1, 6] | solubility ([2]; in water) | Compound
10 to 20% | 30 to 60% | 0.2 µg/mL (≈ 0.581 µM) | – | – | – | C#Cc1ccc(NC(=O)c2ncn3c(C4CCCC4)cc(C)nc23)cc1 [III-1]
> 20% | > 60% | 5.9 µg/mL (≈ 15.8 µM) | – | – | – | C#Cc1cccc([C@H](NC(=O)c2ncn3c(C)cc(C)nc23)C(F)(F)F)c1 [III-5]
< 10% | < 30% | 25.2 µg/mL (≈ 92.5 µM) | – | – | – | Cc1cc(C)n2cnc(C(=O)NC(C)(C)C3CC3)c2n1 [III-8]
< 10% | > 60% | 14.3 µg/mL (≈ 47.6 µM) | – | – | – | Cc1cc(C)n2cnc(C(=O)NC(C)C3CCCCC3)c2n1 (centres unmarked) [III-9]
10 to 20% | > 60% | 9.3 µg/mL (≈ 27.5 µM) | – | – | – | Cc1cc(-c2ccc(F)cc2)nc2c(C(=O)N[C@@H](C)C3CC3)ncn12 [III-12]
< 10% | < 30% | 25 µg/mL (≈ 73.9 µM) | – | – | – | Cc1cc(-c2ccc(F)cc2)n2cnc(C(=O)N[C@@H](C)C3CC3)c2n1 [III-13]
< 10% | 30 to 60% | 37.8 µg/mL (≈ 121 µM) | – | – | – | Cc1cc(C)n2cnc(C(=O)NC(C3CC3)C(F)(F)F)c2n1 (centres unmarked) [III-14]
> 20% | > 60% | 4 µg/mL (≈ 11.3 µM) | – | – | – | Cc1cc(C)n2cnc(C(=O)NC(C3CCCCC3)C(F)(F)F)c2n1 (centres unmarked) [III-15]
10 to 20% | > 60% | 10.4 µg/mL (≈ 26.9 µM) | – | – | – | Cc1cc(Cl)nc2c(C(=O)NC(c3ccc(F)cc3)C(F)(F)F)ncn12 (centres unmarked) [III-24]
> 20% | > 60% | 1.6 µg/mL (≈ 4.54 µM) | – | – | – | Cc1cc(-c2ccc(F)cc2)nc2c(C(=O)NC(C)(C)C3CC3)ncn12 [III-26]
> 20% | > 60% | 4.6 µg/mL (≈ 12.7 µM) | – | – | – | Cc1cc(-c2ccccn2)nc2c(C(=O)NC(CC(C)C)C3CC3)ncn12 (centres unmarked) [III-27]
10 to 20% | > 60% | 0.9 µg/mL (≈ 2.4 µM) | – | – | – | Cc1cc(-c2ccccn2)nc2c(C(=O)N[C@@H](C)c3ccccc3F)ncn12 [III-29]
< 10% | < 30% | – | – | – | – | Cc1c(-c2ccc(F)cc2)cnc2c(C(=O)N[C@@H](C)C3CC3)ncn12 [III-38]
< 10% | < 30% | – | – | – | – | Cc1nc2c(C(=O)N[C@@H](C)C3CC3)ncn2cc1-c1ccc(F)cc1 [III-39]
< 10% | < 30% | – | – | – | – | Cc1cc(-c2ccc(C#N)c(O)c2)nc2c(C(=O)NC(C3CC3)C(F)(F)F)ncn12 (centres unmarked) [III-159]
– | – | – | < 10% | 30 to 60% | – | Cc1cc(-c2cccc(OC(F)(F)F)n2)nc2c(C(=O)N[C@H](C)C3CC3)ncn12 [IV-12]
– | – | – | > 20% | > 60% | – | Cc1cc(-c2ccc(C#N)o2)nc2c(C(=O)N[C@H](C3CC3)C(F)(F)F)ncn12 [IV-34]
– | – | – | 10 to 20% | > 60% | – | Cc1nscc1-c1cc(C)n2cnc(C(=O)N[C@H](C3CC3)C(F)(F)F)c2n1 [IV-96]

From patent US9920061B2, “Imidazo[1,5-A]pyrimidinyl carboxamide compounds and their use in the treatment of medical disorders” (Lysosomal Therapeutics Inc., priority 2016, dated 2018)
